Patent US20240116985A1, “STAPLED PEPTIDES AND METHODS THEREOF” (priority 2020, published 2024)
Like-named read-outs stand apart in the source and are kept apart here.

Legend:
[1] = target: T1, beta-catenin/TCF4 engagement (Homo sapiens, UniProt P35222); assay: Nano-BRET target engagement assay (B-cat-Halo & TCF4-Luc in HEK293 cells); assay type: cell-based; details: read-out: NanoBRET Abs IC50
T1 construct: expressed in transfected cells; host or cells: HEK293
T1 sequence (P35222 1-781): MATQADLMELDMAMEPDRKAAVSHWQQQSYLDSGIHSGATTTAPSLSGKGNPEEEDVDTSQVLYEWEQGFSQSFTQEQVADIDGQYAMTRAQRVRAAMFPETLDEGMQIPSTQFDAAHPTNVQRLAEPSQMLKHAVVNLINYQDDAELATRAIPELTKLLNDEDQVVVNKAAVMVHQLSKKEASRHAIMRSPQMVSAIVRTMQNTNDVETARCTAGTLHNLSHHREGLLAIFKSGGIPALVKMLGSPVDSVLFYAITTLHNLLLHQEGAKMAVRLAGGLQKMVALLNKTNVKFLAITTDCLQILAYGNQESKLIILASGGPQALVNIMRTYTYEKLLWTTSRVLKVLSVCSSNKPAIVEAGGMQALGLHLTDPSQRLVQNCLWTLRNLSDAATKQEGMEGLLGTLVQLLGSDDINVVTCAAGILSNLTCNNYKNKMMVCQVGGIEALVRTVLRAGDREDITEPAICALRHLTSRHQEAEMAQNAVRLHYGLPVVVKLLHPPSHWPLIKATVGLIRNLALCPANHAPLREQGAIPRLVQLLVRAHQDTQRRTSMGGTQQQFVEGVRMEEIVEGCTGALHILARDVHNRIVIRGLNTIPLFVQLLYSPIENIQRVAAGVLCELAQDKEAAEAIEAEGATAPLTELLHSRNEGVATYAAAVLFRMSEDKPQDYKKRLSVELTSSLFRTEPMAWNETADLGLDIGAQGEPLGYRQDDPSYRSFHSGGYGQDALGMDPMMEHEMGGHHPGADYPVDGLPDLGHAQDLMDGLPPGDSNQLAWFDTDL

[2] = target: T2, full-length beta-Catenin (Uniprot ID P35222) (Homo sapiens, UniProt P35222); assay: Fluorescence polarization IC50 (beta-catenin / 5FAM-TCF4 10-53 competition); assay type: binding; details: fluorescence polarization; read-out: beta-Catenin FP IC50
T2 construct: 10 nM full-length beta-Catenin (Uniprot ID P35222)
T2 sequence (P35222 1-781): T1 sequence (P35222 1-781)

Compound	IC50 [1] [nM]	IC50 [2] [nM]	IC50 ([1]; absolute IC50) [nM]
CC(=O)N1CCC[C@]12CC=CCCCC1(CCCC=CCCCCOC(=O)N3CCC(C(=O)N[C@@H](Cc4ccccc4C(F)(F)F)C(=O)N[C@@H](Cc4csc5ccccc45)C(=O)N[C@@H](CCC(N)=O)C(N)=O)(CC3)NC(=O)[C@H](CC(C)C)NC(=O)[C@H](Cc3ccccc3)NC(=O)[C@H](C)NC(=O)[C@H](C)NC(=O)[C@H](Cc3cccc(C(=O)O)c3)NC(=O)[C@H](CC(=O)O)NC1=O)NC(=O)[C@H](CC(C)(C)C)NC(=O)[C@H](CC(=O)O)NC2=O (stereo partly drawn) [I-2583, Ac-PL3-Asp-Npg-B5-Asp-3COOHF-Ala-Ala-Phe-Leu-SPip3-2F3MeF-BztA-Gln-NH2]	> 20000	224	
C[C@@H]1NC(=O)[C@H](C)NC(=O)[C@H](CC(=O)O)NC(=O)[C@H](CC(=O)O)NC(=O)C2(CCCC=CCCCOC(=O)N3CC[C@@](C(=O)N[C@@H](Cc4ccccc4Cl)C(=O)N[C@@H](Cc4csc5ccccc45)C(=O)N[C@@H](C(N)=O)[C@H](C)O)(C3)NC(=O)[C@H](CC(N)=O)NC(=O)[C@H](Cc3ccccc3)NC1=O)CCCC=CC[C@]1(CCCN1S(C)(=O)=O)C(=O)N[C@@H](CC(=O)O)C(=O)N[C@@H](CC(C)(C)C)C(=O)N2 (stereo partly drawn) [I-1258, MeSO2-PL3-Asp-Npg-B5-Asp-Asp-Ala-Ala-Phe-Asn-PyrS2-2C1F-BztA-dThr-NH2]		17	> 20000
CC(=O)N1CCC[C@]12CC=CCCCC1(CCCC=CCCCOC(=O)N3CC[C@@](C(=O)N[C@@H](Cc4ccccc4)C(=O)N[C@@H](Cc4csc5ccccc45)C(=O)N[C@@H](CCCCN)C(N)=O)(C3)NC(=O)[C@H](CC(C)C)NC(=O)[C@H](Cc3ccccc3)NC(=O)[C@H](C)NC(=O)[C@H](CCCCNC(C)C)NC(=O)[C@H](CCC(N)=O)NC(=O)[C@H](CC(=O)O)NC1=O)NC(=O)[C@H](CC1CCCCC1)NC(=O)[C@H](CC(=O)O)NC2=O (stereo partly drawn) [I-2429, Ac-PL3-Asp-Cha-B5-Asp-Gln-iPrLys-Ala-Phe-Leu-PyrS2-Phe-BztA-Lys-NH2]		10	> 20000
CC(=O)N1CCC[C@]12CCCCCCC1(CCCCCCOC(=O)N3CC[C@@](C(=O)N[C@@H](Cc4ccsc4)C(=O)N[C@@H](Cc4csc5ccccc45)C(=O)N[C@@H](CCC(N)=O)C(N)=O)(C3)NC(=O)[C@H](CC(N)=O)NC(=O)[C@H](Cc3ccccc3)NC(=O)[C@H](C)NC(=O)[C@H](C)NC(=O)[C@H](CC(=O)O)NC(=O)[C@H](CC(=O)O)NC1=O)NC(=O)[C@H](CC(C)(C)C)NC(=O)[C@H](CC(=O)O)NC2=O (stereo partly drawn) [I-1823, Ac-PL3-Asp-Npg-B5-Asp-Asp-Ala-Ala-Phe-Asn-PyrS-3Thi-BztA-Gln-NH2]		41	> 20000
CC(=O)N1CCC[C@]12CC=CCCCC1(CCCC=CCCCOC(=O)N3CC[C@@](C(=O)N[C@@H](Cc4ccccc4C(F)(F)F)C(=O)N[C@H](C(=O)N[C@@H](C)C(N)=O)[C@@H](C)c4csc5ccccc45)(C3)NC(=O)[C@H](CC(C)C)NC(=O)[C@H](Cc3ccccc3)NC(=O)[C@H](C)NC(=O)[C@H](CCC(N)=O)NC(=O)[C@H](Cc3cccc(C(=O)O)c3)NC(=O)[C@H](CC(=O)O)NC1=O)NC(=O)[C@H](CC(C)(C)C)NC(=O)[C@H](CC(=O)O)NC2=O (stereo partly drawn) [I-2457, Ac-PL3-Asp-Npg-B5-Asp-3COOHF-Gln-Ala-Phe-Leu-PyrS2-2F3MeF-SbMeBztA-Ala-NH2]		52	20800
CC(=O)N1CCC[C@]12CC=CCCCC1(CCCC=CCCCOC(=O)N3CC[C@@](C(=O)N[C@@H](Cc4ccsc4)C(=O)N[C@@H](Cc4csc5ccccc45)C(=O)N[C@@H](CCC(N)=O)C(N)=O)(C3)NC(=O)[C@H](CCO)NC(=O)[C@H](Cc3cccc(C(=O)O)c3)NC(=O)[C@H](C)NC(=O)[C@H](C)NC(=O)[C@H](Cc3c[nH]cn3)NC(=O)[C@H](CC(=O)O)NC1=O)NC(=O)[C@H](CC(C)(C)C)NC(=O)[C@H](CC(=O)O)NC2=O (stereo partly drawn) [I-2121, Ac-PL3-Asp-Npg-B5-Asp-His-Ala-Ala-3COOHF-Hse-PyrS2-3Thi-BztA-Gln-NH2]	> 20000	12	
CCCC[C@@H]1NC(=O)[C@H](Cc2cccc(C(=O)O)c2)NC(=O)[C@H](CC(=O)O)NC(=O)C2(CCCC=CCCCOC(=O)N3CC[C@@](C(=O)N[C@@H](Cc4ccsc4)C(=O)N[C@@H](Cc4csc5ccccc45)C(=O)N[C@@H](CC(C)(C)C)C(N)=O)(C3)NC(=O)[C@H](CC(C)C)NC(=O)[C@H](Cc3ccccc3)NC(=O)[C@H](C)NC1=O)CCCC=CC[C@]1(CCCN1C(C)=O)C(=O)N[C@@H](CC(=O)O)C(=O)N[C@@H](CC(C)(C)C)C(=O)N2 (stereo partly drawn) [I-2193, Ac-PL3-Asp-Npg-B5-Asp-3COOHF-nLeu-Ala-Phe-Leu-PyrS2-3Thi-BztA-Npg-NH2]	39900	164	
CC(=O)N1CCC[C@]12CC=CCCCC1(CCCC=CCCCCCC[C@@](C)(C(=O)N[C@@H](Cc3cccs3)C(=O)N[C@@H](Cc3csc4ccccc34)C(=O)N[C@@H](CCC(N)=O)C(N)=O)NC(=O)[C@H](CCO)NC(=O)[C@H](Cc3ccccc3)NC(=O)[C@H](C)NC(=O)[C@H](C)NC(=O)[C@H](CC(=O)O)NC(=O)[C@H](CC(=O)O)NC1=O)NC(=O)[C@H](CC(C)(C)C)NC(=O)[C@H](CC(=O)O)NC2=O (stereo partly drawn) [I-1392, Ac-PL3-Asp-Npg-B5-Asp-Asp-Ala-Ala-Phe-Hse-S8-2Thi-BztA-Gln-NH2]		13	18300
CC(=O)N1CCC[C@]12CC=CCCCC1(CCCC=CCCCOC(=O)N3CC[C@@](C(=O)N[C@@H](Cc4ccccc4Cl)C(=O)N[C@@H](Cc4csc5ccccc45)C(=O)N[C@@H](CO)C(=O)N4CCC[C@H]4CO)(C3)NC(=O)[C@H](CC(C)C)NC(=O)[C@H](Cc3ccccc3)NC(=O)[C@H](C)NC(=O)[C@H](C)NC(=O)[C@H](Cc3cccc(C(=O)O)c3)NC(=O)[C@H](CC(=O)O)NC1=O)NC(=O)[C@H](CC(C)(C)C)NC(=O)[C@H](CC(=O)O)NC2=O (stereo partly drawn) [I-1906, Ac-PL3-Asp-Npg-B5-Asp-3COOHF-Ala-Ala-Phe-Leu-PyrS2-2C1F-BztA-Ser-Prool]	15500	23	
CC(=O)N1CCC[C@]12CC=CCCCC1(CCCC=CCCCOC(=O)N3CC[C@@](C(=O)N[C@@H](Cc4ccsc4)C(=O)N[C@@H](Cc4cccc5ccccc45)C(=O)N[C@@H](CCC(N)=O)C(N)=O)(C3)NC(=O)[C@H]([C@@H](C)O)NC(=O)[C@H](Cc3ccccc3)NC(=O)[C@H](C)NC(=O)[C@H](C)NC(=O)[C@H](CC(=O)O)NC(=O)[C@H](CC(=O)O)NC1=O)NC(=O)[C@H](CC(C)(C)C)NC(=O)[C@H](CC(=O)O)NC2=O (stereo partly drawn) [I-1232, Ac-PL3-Asp-Npg-B5-Asp-Asp-Ala-Ala-Phe-Thr-PyrS2-3Thi-1NapA-Gln-NH2]		31	43300
CC(=O)N1CCC[C@]12CC=CCCCC1(CCCC=CCCCOC(=O)N3CC[C@@](C(=O)N[C@@H](Cc4ccccc4C(F)(F)F)C(=O)N[C@@H](Cc4ccc(C)c(C)c4)C(=O)N[C@@H](C)C(N)=O)(C3)NC(=O)[C@H](CC(C)C)NC(=O)[C@H](Cc3ccccc3)NC(=O)[C@H](C)NC(=O)[C@H](CCC(N)=O)NC(=O)[C@H](Cc3cccc(C(=O)O)c3)NC(=O)[C@H](CC(=O)O)NC1=O)NC(=O)[C@H](CC(C)(C)C)NC(=O)[C@H](CC(=O)O)NC2=O (stereo partly drawn) [I-2294, Ac-PL3-Asp-Npg-B5-Asp-3COOHF-Gln-Ala-Phe-Leu-PyrS2-2F3MeF-34MeF-Ala-NH2]		16	4600
CC(=O)N1CCC[C@]12CC=CCCCC1(CCCC=CCCCOC(=O)N3CC[C@@](C(=O)N[C@@H](Cc4ccsc4)C(=O)N[C@@H](Cc4csc5ccccc45)C(=O)N[C@@H](CCC(N)=O)C(N)=O)(C3)NC(=O)[C@H](CC(N)=O)NC(=O)[C@H](Cc3ccccc3)NC(=O)[C@H](C)NC(=O)[C@H](C)NC(=O)[C@H](CN(CC(=O)O)Cc3c(F)c(F)c(F)c(F)c3F)NC(=O)[C@H](CC(=O)O)NC1=O)NC(=O)[C@H](CC(C)(C)C)NC(=O)[C@H](CC(=O)O)NC2=O (stereo partly drawn) [I-1638, Ac-PL3-Asp-Npg-B5-Asp-[Pfbn]GA-Ala-Ala-Phe-Asn-PyrS2-3Thi-BztA-Gln-NH2]		9	14500
CC(=O)N1CCC[C@]12CC=CCCCC1(CCCC=CCCCOC(=O)N3CC[C@@](C(=O)N[C@@H](Cc4ccsc4)C(=O)N[C@@H](Cc4csc5ccccc45)C(=O)N[C@@H](CCC(N)=O)C(N)=O)(C3)NC(=O)[C@H](CC(C)C)NC(=O)[C@H](Cc3ccccc3)NC(=O)[C@H](C)NC(=O)[C@H](C)NC(=O)[C@H](CN(CC(=O)O)C(=O)CN3CCOCC3)NC(=O)[C@H](CC(=O)O)NC1=O)NC(=O)[C@H](CC(C)(C)C)NC(=O)[C@H](CC(=O)O)NC2=O (stereo partly drawn) [I-2239, Ac-PL3-Asp-Npg-B5-Asp-[MorphAc]GA-Ala-Ala-Phe-Leu-PyrS2-3Thi-BztA-Gln-NH2]		10	31900
